From patent publication US20060246104A1, “Stable rgd peptidomimetic composition” (priority 2003, published 2006)

Key:
3T3 fibroblasts = test: Cell adhesion assay (cell area coverage on surface-immobilized substrates); assay type: cell-based; details: substance surface-immobilized on tissue culture plastic; 3T3 cells, 24 hrs; relative to untreated tissue culture plastic
Description: For this study, we immobilized AAGPAHA and the peptide GRGDSP on dextran-coated tissue culture plastic dishes in a series of steps shown in FIGS. 2-4. Multi-well cell culture dishes were first surface-aminated by adsorbing poly-lysine (FIG. 2). Dextran was then immobilized on these surfaces (FIG. 3) using reported methods (Massia, Biomaterials 21:2753-61, 2000). AAGPAHA and GRGDSP were then surface-immobilized on dextran-coated tissue culture plastic (FIG. 4) using reported methods (Massia, J Biomed Mater Res 56:390-99, 2001). Dextran substrates were activated by oxidation of the glucose subunits (Glc) with sodium metaperiodate to convert Glc subunits to […]. […]
Cell area coverage assays were performed to assess the extent of 3T3 cell adhesion and spreading on all substrates. […] Following incubation, samples were fixed (3.8% formaldehyde in phosphate buffered saline (PBS) for 5 min. and stained with 0.1% aqueous toluidine blue (5 min). Stained cells were then examined using phase contrast or stereomicroscopy (Leica) at 100× magnification. Three random 100× fields were selected for each substrate for analysis. The extent of cell adhesion was determined for each captured digital image by calculating a percentage of cell area coverage using digital image analysis software. Final data were presented as a percentage of control adhesion. […]

trypsin = test: Enzymatic stability in trypsin solution, MALDI-TOF mass spectrometry; assay type: in vitro ADME; details: for decrease in mass peak size after treatment with trypsin / mass peak intensity after trypsin exposure / degradation after prolonged trypsin exposure / mass peak intensity after prolonged trypsin exposure: 0.05 mM trypsin; for decrease in mass peak size after treatment with trypsin / mass peak intensity after trypsin exposure / mass peak intensity before trypsin exposure: 1 hr, 37° C.; for mass peak intensity after trypsin exposure / mass peak intensity before trypsin exposure: HEPES pH 8, 0.4 mM; for degradation after prolonged trypsin exposure / mass peak intensity after prolonged trypsin exposure / mass peak intensity before prolonged trypsin exposure: 16 hrs, room temperature; for mass peak intensity before trypsin exposure / mass peak intensity before prolonged trypsin exposure: control without trypsin
Method: GRGDSP and AAGPAHA were mixed with trypsin solution in HEPES buffer (10 mM, pH=8) to a final solution of 0.4 mM peptide and 0.05 mM (0.12%) trypsin and incubated at 37° C. for 1 hr. In a control experiment, both peptides were dissolved in the same buffer without trypsin at the same final concentrations and incubated at 37° C. for 1 hr. Similarly, in another set of experiments, the same samples were incubated at room temperature overnight. At the end of the incubation period, trypsin activity was quenched by adding inhibitor; and the samples were analyzed by MALDI-TOF mass spectrometry to assess the extent of degradation.

[1] = tested on: 3T3 cell adhesion and spreading (integrin-mediated); test: Cell adhesion inhibition assay (soluble competitor against grafted substrate); assay type: cell-based; details: soluble GRGDSP 1 mg/mL, 3T3 cells, 24 hrs
Method: The cell line utilized in these studies were 3T3 fibroblasts (ATCC # CRL-6476, Manassas, Va.). 3T3 cells were maintained in Dulbecco's modified Eagle medium (DMEM) with 10% fetal bovine serum (FBS) at 37° C. in saturated humidity. All cell culture media and reagents were obtained from Life Technologies, Inc. (Rockville, Md.).
Cell area coverage assays were performed to assess the extent of 3T3 cell adhesion and spreading on all substrates. 3T3 cells were seeded on 24-well culture dishes (15,000 cells/well) and incubated for 24 hrs. Following incubation, samples were fixed (3.8% formaldehyde in phosphate buffered saline (PBS) for 5 min. and stained with 0.1% aqueous toluidine blue (5 min). Stained cells were then examined using phase contrast or stereomicroscopy (Leica) at 100× magnification. Three random 100× fields were selected for each substrate for analysis. The extent of cell adhesion was determined for each captured digital image by calculating a percentage of cell area coverage using digital image analysis software. Final data were presented as a percentage of control adhesion.
The percentage of control adhesion was calculated by multiplying the ratio of % area coverage on dextran-coated, peptide-grafted, or peptidomimetic-grafted substrates to % cell area coverage on untreated tissue culture plastic by 100. […]

| decrease in mass peak size after treatment with trypsin (trypsin) | mass peak intensity after trypsin exposure (trypsin) | mass peak intensity after prolonged trypsin exposure (trypsin) | mass peak intensity before trypsin exposure (trypsin) | mass peak intensity before prolonged trypsin exposure (trypsin) | Molecule | percentage of control adhesion (cell area coverage) (3T3 fibroblasts) | degradation after prolonged trypsin exposure (trypsin) | percentage of control adhesion on surface-immobilized AAGPAHA in presence of soluble compound [1] | percentage of control adhesion on surface-immobilized AAGPAHA in presence of soluble compound ([1]; listed as RGD peptide) |
| --- | --- | --- | --- | --- | --- | --- | --- | --- | --- |
| no significant change | the same | the same | 1.2×10^4 | 1.2×10^4 | N=C(N)NCCCC(N)C(=O)NCCCCC(N)C(=O)O (stereo not shown) [AAGPAHA, 2-amino-6-[(2-amino-5{guanidino}pentanoyl)amino]hexanoic acid] | 105.9±12.8 % control | highly resistant to trypsin-mediated degradation | – | – |
| 73% | 4.0×10^3 | 3.0×10^2 | 1.5×10^4 | 1.5×10^4 | GRGDSP | 124.3±4.1 % control | about 98% | 5.7%±6.9% | decreased cell coverage |
